Data published in ChEMBL document CHEMBL1201862, “PubChem BioAssay data set” (2004).
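1) Cells in 96-well plates. 2) Compound, 48 h, 5 concentrations. 3) Linear interpolation between surrounding doses. 4) Unreached endpoint = highest concentration. Here, GI50 denotes the concentration required for 50% inhibition of growth.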 Calls of active or inactive are those of the source. Cut-off read from the data, not from the text of the source: active = GI50 up to about 1.1 µM and inactive = higher.

Experiments:
Experiment in all cases: NCI tumour cell line growth inhibition, 48 h
Malme-3M = system: Malme-3M
SNB-78 = system: SNB-78
XF498 = system: XF498
HOP-18 = system: HOP-18
DMS-114 = system: DMS-114
KM-20L2 = system: KM-20L2
786-0 = system: 786-0
LXFL 529 = system: LXFL 529

Compound	GI50 (Malme-3M)	GI50 (SNB-78)	GI50 (XF498)	GI50 (KM-20L2)	GI50 (786-0)	other results
CC(=O)O[C@H]1CC[C@H]2[C@@H]3CC[C@H]4Nc5c(cnn5S(C)(=O)=O)C[C@]4(C)[C@H]3CC[C@]12C	38.7 µM (inactive)					
O=c1cc[nH]c(=O)[nH]1 [URACIL]		475 µM (inactive)	4.23 µM (inactive)	426 µM (inactive)		GI50 (HOP-18): > 1000 µM (inactive); GI50 (DMS-114): 553 µM (inactive)
COc1ccc2ccc3oc(=O)c(C)cc3c2c1	> 100 µM (inactive)				> 100 µM (inactive)	
CC/C=C/C(CC)C/C(C)=C\[C@]1(CC)C[C@H](CC)[C@H](CC(=O)O)OO1 (stereo partly specified)					1.31 µM (inactive)	
CC12CCC([C@H](Nc3cc(C(F)(F)F)cc(C(F)(F)F)c3)C1=O)C2(C)C (stereo partly specified)	> 100 µM (inactive)				> 100 µM (inactive)	
SC1=NC2=C(CSC/C2=C\c2cccc(Br)c2)C(c2cccc(Br)c2)N1 (stereo unspecified)	> 100 µM (inactive)				66.8 µM (inactive)	
Cc1ccc2nc3c(C(=O)NCCN(C)C)cccc3cc2c1	1.77 µM (inactive)	4.24 µM (inactive)	1.8 µM (inactive)	0.75 µM (active)		GI50 (HOP-18): 1.46 µM (inactive); GI50 (DMS-114): 1.53 µM (inactive)
O=C1CN2C(Cl)(Cl)C2(c2ccccc2)c2cc(Cl)ccc2N1CC(F)(F)F (stereo unspecified)	22.7 µM (inactive)			32.5 µM (inactive)		GI50 (DMS-114): 27.2 µM (inactive)
[O-][S+]1c2ccccc2N=C(c2ccc3ccccc3c2)CC1c1ccccc1 (stereo unspecified)		47.3 µM (inactive)	23.9 µM (inactive)	18.7 µM (inactive)		GI50 (LXFL 529): 16.1 µM (inactive)
O=S1(=O)C[C@@H](NCc2ccccc2)[C@H](NCc2ccccc2)C1	> 100 µM (inactive)					
COc1cc2c(cc1OC)C(=O)/C(=C/c1cc(OC)c(OC)c(OC)c1)C2	> 100 µM (inactive)					
COC(=O)C(NC(=O)c1ccccc1)C(c1ccc(Cl)cc1)P(=O)(OC)OC (stereo unspecified)		> 100 µM (inactive)	> 100 µM (inactive)	> 100 µM (inactive)		GI50 (LXFL 529): > 100 µM (inactive)
CC(C)C(/C=C/c1ccc(Cl)cc1)=N\NC(=O)N/N=C(/C=C/c1ccc(Cl)cc1)C(C)C	58.5 µM (inactive)				17.6 µM (inactive)	
CN1C2CC(=O)CC1[C@H](O)[C@@H]2O	> 100 µM (inactive)					
CC1OC1C(=O)C1(O)C(C)C(O)C23OC2(C(O)c2c(O)cccc2C3=O)C1O (stereo unspecified) [CERVICARCIN]	0.0431 µM (active)	0.267 µM (active)	0.253 µM (active)	0.214 µM (active)		GI50 (HOP-18): 0.0605 µM (active); GI50 (DMS-114): 0.048 µM (active)
